The target in one data set is T1, recombinant human 5-HT5A receptor (Homo sapiens, UniProt P47898).
T1 construct: expressed in transfected cells; host or cells: Human Embryonic Kidney-EBNA (HEK-EBNA) cells, transient cDNA expression; membranes
T1 sequence (P47898 whole entry): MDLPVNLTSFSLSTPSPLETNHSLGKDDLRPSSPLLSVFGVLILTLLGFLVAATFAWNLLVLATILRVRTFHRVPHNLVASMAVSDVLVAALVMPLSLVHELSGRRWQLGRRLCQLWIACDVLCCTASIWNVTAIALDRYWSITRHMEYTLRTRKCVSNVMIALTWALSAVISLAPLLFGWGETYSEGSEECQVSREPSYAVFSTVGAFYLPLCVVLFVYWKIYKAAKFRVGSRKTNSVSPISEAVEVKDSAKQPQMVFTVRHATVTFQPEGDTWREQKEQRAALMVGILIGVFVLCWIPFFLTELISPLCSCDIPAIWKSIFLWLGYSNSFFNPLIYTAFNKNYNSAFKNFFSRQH
Kind of data set: [3H]LSD radioligand binding assay.
Conditions: not given
How it is done: A [^3H]LSD radioligand binding assay was used to determine the affinity of the compounds for the recombinant human 5-HT5A receptor, in membranes from transiently (cDNA) expressed 5-HT5A receptors in Human Embryonic Kidney-EBNA (HEK-EBNA) cells. Assay buffer consisted of Tris (50 mM) buffer containing 1 mM EGTA, 10 mM MgCl2 (pH 7.4) and 10 μM pargyline. The binding assay was carried out in 96-well-plates in the presence of [^3H]LSD (approximately 1 nM), approximately 2 μg/well of membrane protein, and 0.5 mg of Ysi-poly-l-lysine SPA beads in a final volume of 200 μl of buffer. Non-specific binding was defined using methiothepin 2 μM. Compounds were tested at 10 concentrations. All assays were conducted in duplicate and repeated at least two times. Assay plates were incubated for 120 min at room temperature before centrifugation. Bound ligand was determined using a Packard Topcount scintillation counter. IC50 values were calculated using a non-linear curve fitting program and Ki values calculated using the Cheng-Prussoff equation.
As for `CC(Nc1cccc2nc(Nc3cccc4c3OC(C)(C)C4)ccc12)c1cc(F)cc(F)c1` (single isomer, unassigned; (+)) [Example 158, (+)-N5-[1-(3,5-Difluoro-phenyl)-ethyl]-N2-(2,2-dimethyl-2,3-dihydro-benzofuran-7-yl)-quinoline-2,5-diamine], the “activity at the 5-HT5A receptor (in words)” value is recorded as “more active”.

Still in this data set, the particulars now being: [3H]LSD approx. 1 nM; membranes from HEK-EBNA cells transiently expressing 5-HT5A; Ki from IC50 by Cheng-Prussoff.
Turning to `COc1ccccc1CNc1ccc2c(C(=N)c3ccc(F)cc3)cccc2n1` [Example 136, {5-[(4-Fluoro-phenyl)-imino-methyl]-quinolin-2-yl}-(2-methoxy-benzyl)-amine], the Ki was 35.6 nM. `COc1ccccc1CNc1ccc2c(CNC(=O)c3ccc(F)cc3)cccc2n1` [Example 146]: the Ki was 86 nM. The same measure, in the same setting: with `Cc1ccc(CNc2ccc3c(NCc4cc(F)cc(F)c4)cccc3n2)o1` [Example 120, N5-(3,5-Difluoro-benzyl)-N2-(5-methyl-furan-2-ylmethyl)-quinoline-2,5-diamine] the figure was 8.45 nM; with `Cc1ccc(CNc2ccc3c(SCc4ccccc4)cccc3n2)o1` [Example 46, (5-Benzylsulfanyl-quinolin-2-yl)-(5-methyl-furan-2-ylmethyl)-amine], 34.1 nM; with `COc1ccccc1CNc1ccc2c(OCCS(=O)(=O)c3ccccc3)cccc2n1` [Example 84, [5-(2-Benzenesulfonyl-ethoxy)-quinolin-2-yl]-(2-methoxy-benzyl)-amine], 88.3 nM. Same read-out and setting: with `Cc1ccc(CNc2ccc3c(NS(=O)(=O)Nc4ccccc4)cccc3n2)o1` [Example 145, N-(2-{[(5-methyl-2-furyl)methyl]amino}quinolin-5-yl)-N′-phenylsulfamide] the figure was 51.3 nM; with `Cc1ccc(CNc2ccc3c(Nc4ccc(F)cc4)cccc3n2)o1` [Example 45, N5-(4-Fluoro-phenyl)-N2-(5-methyl-furan-2-ylmethyl)-quinoline-2,5-diamine], 13.2 nM. In the case of `O=S(=O)(Nc1cccc2nc(NCc3ccccc3OC(F)(F)F)ccc12)c1ccc(F)cc1` [Example 108, 4-Fluoro-N-[2-(2-trifluoromethoxy-benzylamino)-quinolin-5-yl]-benzenesulfonamide], the Ki worked out at 49.6 nM. The same measure, in the same setting: the figure for `CC(Nc1cccc2nc(Nc3cccc4c3OC(C)(C)C4)ccc12)c1cc(F)cc(F)c1` (single isomer, unassigned; (+)) [Example 158, (+)-N5-[1-(3,5-Difluoro-phenyl)-ethyl]-N2-(2,2-dimethyl-2,3-dihydro-benzofuran-7-yl)-quinoline-2,5-diamine] is 3.1 nM; for `Cc1ccc(CNc2ccc3c(NCc4ccccc4N4CCN(C)CC4)cccc3n2)o1` [Example 105, N2-(5-Methyl-furan-2-ylmethyl)-N5-[2-(4-methyl-piperazin-1-yl)-benzyl]-quinoline-2,5-diamine] it is 24.1 nM.

`COc1ccccc1CNc1ccc2c(CCc3cccc(CO)c3)cccc2n1` [Example 23, (3-{2-[2-(2-Methoxy-benzylamino)-quinolin-5-yl]-ethyl}-phenyl)-methanol]: the Ki turned out to be 18.4 nM. As to `Cc1ccc(CNc2ccc3c(NC4CCOc5ccccc54)cccc3n2)o1` (racemic) [Example 142, rac-N5-Chroman-4-yl-N2-(5-methyl-furan-2-ylmethyl)-quinoline-2,5-diamine], the Ki was 37.1 nM. On the same count and under the same terms, with `Cc1ccc(CNc2ccc3c(NCc4cccc5[nH]ccc45)cccc3n2)o1` [Example 91, N5-(1H-Indol-4-ylmethyl)-N2-(5-methyl-furan-2-ylmethyl)-quinoline-2,5-diamine] the figure was 5.25 nM; with `Cc1cc2cccc(Nc3ccc4c(NCc5ccc6[nH]cnc6c5)cccc4n3)c2o1` [Example 124, N5-(1H-Benzoimidazol-5-ylmethyl)-N2-(2-methyl-benzofuran-7-yl)-quinoline-2,5-diamine], 6.29 nM.

On to `Cc1ccc(CNc2ccc3c(Nc4ccc(F)c5[nH]ccc45)cccc3n2)o1` [Example 119, N5-(7-Fluoro-1H-indol-4-yl)-N2-(5-methyl-furan-2-ylmethyl)-quinoline-2,5-diamine], for which the Ki came out at 8.45 nM. Still for that read-out and setting: with `Cc1nc[nH]c1CNc1cccc2nc(Nc3cccc4c3OC(C)(C)C4)ccc12` [Example 149, N2-(2,2-Dimethyl-2,3-dihydro-benzofuran-7-yl)-N5-(5-methyl-3H-imidazol-4-ylmethyl)-quinoline-2,5-diamine] the figure was 3.97 nM; with `Cc1ccc(CNc2ccc3c(NCc4ccc(F)cc4)cccc3n2)o1` [Example 20, N5-(4-Fluoro-benzyl)-N2-(5-methyl-furan-2-ylmethyl)-quinoline-2,5-diamine], 25.4 nM. For `Cc1ccc(CNc2ccc3c(NC4CCS(=O)(=O)c5ccccc54)cccc3n2)o1` (racemic) [Example 143, rac-5-(1,1-Dioxo-1l6-thiochroman-4-yl)-N2-(5-methyl-furan-2-ylmethyl)-quinoline-2,5-diamine], the Ki came to 18.2 nM. The same measure, in the same setting: the figure for `Cc1ccc(CNc2ccc3c(NCc4nc[nH]c4C)cccc3n2)o1` [Example 92, N2-(5-Methyl-furan-2-ylmethyl)-N5-(5-methyl-1H-imidazol-4-ylmethyl)-quinoline-2,5-diamine] is 14.4 nM; for `FC(F)(F)Oc1ccccc1CNc1ccc2c(NCc3cccc4[nH]ccc34)cccc2n1` [Example 116, N5-(1H-Indol-4-ylmethyl)-N2-(2-trifluoromethoxy-benzyl)-quinoline-2,5-diamine] it is 32.9 nM. Turning to `COc1cccc(OC)c1CNc1ccc2c(NCc3cccc4[nH]ccc34)cccc2n1` [Example 109, N2-(2,6-Dimethoxy-benzyl)-N5-(1H-indol-4-ylmethyl)-quinoline-2,5-diamine], the inhibition constant Ki was 97.3 nM. As for `Cc1ccc(CNc2ccc3c(Nc4cccc5[nH]ccc45)cccc3n2)o1` [Example 94, N5-(1H-Indol-4-yl)-N2-(5-methyl-furan-2-ylmethyl)-quinoline-2,5-diamine], the Ki is 10.7 nM.

Regarding `CC1(C)Cc2cccc(Nc3ccc4c(NCc5cccc6[nH]ccc56)cccc4n3)c2O1` [Example 147, N2-(2,2-Dimethyl-2,3-dihydro-benzofuran-7-yl)-N5-(1H-indol-4-ylmethyl)-quinoline-2,5-diamine], the Ki turned out to be 4.31 nM.

With `Cc1ccc(CNc2ccc3c(CNc4cccnc4)cccc3n2)o1` [Example 21, (5-Methyl-furan-2-ylmethyl)-[5-(pyridin-3-ylaminomethyl)-quinolin-2-yl]-amine], the Ki is 35.8 nM.

Turning to `COc1cccc(CNc2cccc3nc(NCc4ccccc4OC)ccc23)c1` [Example 5, N5-(3-Methoxy-benzyl)-N2-(2-methoxy-benzyl)-quinoline-2,5-diamine], the Ki came out at 9.7 nM. On the same count and under the same terms, with `Cc1ccc(CNc2ccc3c(NCc4ccccn4)cccc3n2)o1` [Example 26, N2-(5-Methyl-furan-2-ylmethyl)-N5-pyridin-2-ylmethyl-quinoline-2,5-diamine] the figure was 21 nM. On the same count and under the same terms, the figure for `COc1ccccc1CNc1ccc2c(NCc3ccccc3OC)cccc2n1` [Example 6, N2,N5-Bis-(2-methoxy-benzyl)-quinoline-2,5-diamine] is 10.2 nM; for `Cc1ccc(CNc2ccc3c(NCc4cccc5c4OCO5)cccc3n2)o1` [Example 103, N5-Benzo[1,3]dioxol-4-ylmethyl-N2-(5-methyl-furan-2-ylmethyl)-quinoline-2,5-diamine] it is 6.57 nM; for `Cc1ccc(CNc2ccc3c(NS(=O)(=O)c4cc(F)cc(F)c4)cccc3n2)s1` [Example 85, 3,5-Difluoro-N-{2-[(5-methyl-thiophen-2-ylmethyl)-amino]-quinolin-5-yl}-benzenesulfonamide] it is 16.7 nM. The same measure, in the same setting: with `CC1(C)Cc2cccc(Nc3ccc4c(NS(=O)(=O)Nc5ccc(F)cc5)cccc4n3)c2O1` [Example 156, N-{2-[(2,2-dimethyl-2,3-dihydro-1-benzofuran-7-yl)amino]quinolin-5-yl}-N′-(4-fluorophenyl)sulfamide] the figure was 45.1 nM.

Regarding `Cc1ccc(CNc2ccc3c(NCc4nccs4)cccc3n2)o1` [Example 100, N2-(5-Methyl-furan-2-ylmethyl)-N5-thiazol-2-ylmethyl-quinoline-2,5-diamine], the Ki turned out to be 22.7 nM.

With `Cc1ccc(CNc2ccc3c(NC4CCSc5ccccc54)cccc3n2)o1` (racemic) [Example 135, rac-N2-(5-Methyl-furan-2-ylmethyl)-N5-thiochroman-4-yl-quinoline-2,5-diamine], the Ki came to 17.1 nM.

System in the next data set: not given
Assay: not given
Conditions: not given
For the compound `COc1ccccc1CNc1ccc2c(C(=N)c3ccc(F)cc3)cccc2n1` [Example 136, {5-[(4-Fluoro-phenyl)-imino-methyl]-quinolin-2-yl}-(2-methoxy-benzyl)-amine], the melting point amounted to 155 °C. On the same count and under the same terms, the figure for `COc1ccccc1CNc1ccc2c(CNC(=O)c3ccc(F)cc3)cccc2n1` [Example 146] is 162.5 °C; for `COc1ccccc1CNc1ccc2c(-c3noc(C)n3)cccc2n1` [Example 150, (2-Methoxy-benzyl)-[5-(5-methyl-[1,2,4]oxadiazol-3-yl)-quinolin-2-yl]-amine] it is 121.5 °C.

Turning to `Cc1ccc(CNc2ccc3c(CNC(=O)c4ccc(F)cc4)cccc3n2)o1` [Example 126, 4-Fluoro-N-{2-[(5-methyl-furan-2-ylmethyl)-amino]-quinolin-5-ylmethyl}-benzamide], the melting point stood at 173 °C.

What is called Ki is the equilibrium dissociation constant of an inhibitor or competing ligand from its target. As usually defined, the melting point is the temperature, or range, at which the solid turns liquid.

For the origin of these results see US7825253B2, “2-aminoquinoline derivatives” (Hoffmann-La Roche Inc., priority 2006, dated 2010).
